Source: PubChem BioAssay (NCI)
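How tested: cells in 96-well plates exposed to compound for 48 hours at five concentrations. TGI marks complete inhibition of growth.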

Columns and labels:
Assay in all cases: growth of human tumour cells (NCI), 48 h
786-0 renal = system: 786-0 renal
A498 renal = system: A498 renal
A549 NSCLC = system: A549 NSCLC
ACHN renal = system: ACHN renal
BT-549 breast = system: BT-549 breast
CAKI-1 renal = system: CAKI-1 renal
CCRF-CEM leukemia = system: CCRF-CEM leukemia
COLO 205 colon = system: COLO 205 colon
DU-145 prostate = system: DU-145 prostate
EKVX NSCLC = system: EKVX NSCLC
HCT-15 colon = system: HCT-15 colon
HL-60(TB) leukemia = system: HL-60(TB) leukemia
HOP-62 NSCLC = system: HOP-62 NSCLC
HOP-92 NSCLC = system: HOP-92 NSCLC
HS 578T breast = system: HS 578T breast
HT29 colon = system: HT29 colon
IGROV1 ovarian = system: IGROV1 ovarian
K-562 leukemia = system: K-562 leukemia
KM12 colon = system: KM12 colon
LOX IMVI melanoma = system: LOX IMVI melanoma
M14 melanoma = system: M14 melanoma
MALME-3M melanoma = system: MALME-3M melanoma
MCF7 breast = system: MCF7 breast
MDA-MB-231 breast = system: MDA-MB-231 breast
MDA-MB-435 = system: MDA-MB-435
MOLT-4 leukemia = system: MOLT-4 leukemia
NCI-H23 lung = system: NCI-H23 lung
NCI-H460 lung = system: NCI-H460 lung
NCI-H522 lung = system: NCI-H522 lung
NCI/ADR-RES ovarian = system: NCI/ADR-RES ovarian
OVCAR-3 ovarian = system: OVCAR-3 ovarian
OVCAR-4 ovarian = system: OVCAR-4 ovarian
OVCAR-5 ovarian = system: OVCAR-5 ovarian
OVCAR-8 ovarian = system: OVCAR-8 ovarian
PC-3 prostate = system: PC-3 prostate
RPMI-8226 leukemia = system: RPMI-8226 leukemia
RXF 393 renal = system: RXF 393 renal
SF-268 CNS = system: SF-268 CNS
SF-295 CNS = system: SF-295 CNS
SF-539 CNS = system: SF-539 CNS
SK-MEL-2 melanoma = system: SK-MEL-2 melanoma
SK-MEL-28 melanoma = system: SK-MEL-28 melanoma
SK-MEL-5 melanoma = system: SK-MEL-5 melanoma
SK-OV-3 ovarian = system: SK-OV-3 ovarian
SN12C renal = system: SN12C renal
SNB-19 CNS = system: SNB-19 CNS
SNB-75 CNS = system: SNB-75 CNS
SR leukemia = system: SR leukemia
SW-620 colon = system: SW-620 colon
T-47D breast = system: T-47D breast
TK-10 renal = system: TK-10 renal
U251 CNS = system: U251 CNS
UACC-257 melanoma = system: UACC-257 melanoma
UACC-62 melanoma = system: UACC-62 melanoma
UO-31 renal = system: UO-31 renal
HCC-2998 colon = system: HCC-2998 colon
NCI-H226 lung = system: NCI-H226 lung

Measured: TGI

COc1ccc(CC2COc3cc(O)cc(O)c3C2=O)cc1O (stereo unspecified)
6.98 µM: SNB-75 CNS
43.8 µM: COLO 205 colon
8.78 µM: NCI/ADR-RES ovarian
6.87 µM: OVCAR-3 ovarian
28.5 µM: RPMI-8226 leukemia
68.1 µM: DU-145 prostate
38.6 µM: SK-OV-3 ovarian
10.1 µM: SF-539 CNS
92.3 µM: 786-0 renal
3.68 µM: MDA-MB-435
27.5 µM: HT29 colon
43.9 µM: KM12 colon
24.1 µM: SF-295 CNS
not listed: HCC-2998 colon | NCI-H226 lung
> 100 µM: all other assays above

CC(=O)OC(Cn1cncn1)(Cn1cncn1)c1ccc(Cl)cc1Cl
not listed: ACHN renal | MALME-3M melanoma | NCI-H23 lung | SN12C renal | SR leukemia | UACC-62 melanoma
> 100 µM: all other assays above
